Earlier results, collected in patent US20130109707A1, “FLUOROURACIL DERIVATIVES” (Concert Pharmaceuticals ,Inc., priority 2010, published 2013).

Settings: patients treated with carmofur or with 5-fluorouracil; reported by Mixutani, Brain Nerve 2008

Compound	cases of leukoencephalopathy [%]
O=c1[nH]cc(F)c(=O)[nH]1 [5-fluorouracil]	0.026
CCCCCCNC(=O)n1cc(F)c(=O)[nH]c1=O [carmofur, 5-fluoro-N-hexyl-2,4-dioxo-pyrimidine-1-carboxamide]	0.026
